Test results published in patent publication US20080175794A1, “Substituted Pyridazinyl- and Pyrimidinyl-Quinolin-4-Ylamine Analogues” (NEUROGEN CORPORATION, priority 2005, published 2008).

The compounds below were run against T1, human capsaicin receptor (Homo sapiens, UniProt Q8NER1) (assay: Calcium mobilization assay, determination of antagonist activity (Example 6)). Conditions: Table III; assay provided in Example 6; cells expressing human capsaicin receptor, capsaicin at EC50.
T1 construct: expressed in transfected cells
Type: cell-based
Protocol: A cDNA encoding full length human capsaicin receptor (SEQ ID NO:1, 2 or 3 of U.S. Pat. No. 6,482,611) is subcloned in the plasmid pBK-CMV (Stratagene, La Jolla, Calif.) for recombinant expression in mammalian cells.
Human embryonic kidney (HEK293) cells are transfected with the pBK-CMV expression construct encoding the full length human capsaicin receptor using standard methods. The transfected cells are selected over two weeks in media containing G418 (400 μg/ml) to obtain a pool of stably transfected cells. Independent clones are isolated from this pool by limiting dilution to obtain clonal stable cell lines for use in subsequent experiments.
Cells transfected with expression plasmids (as described in Example 4) and thereby expressing human capsaicin receptor are seeded and grown to 70-90% confluency in FALCON black-walled, clear-bottomed 96-well plates (#3904, BECTON-DICKINSON, Franklin Lakes, N.J.). The culture medium is emptied from the 96 well plates and FLUO-3 AM calcium sensitive dye (Molecular Probes, Eugene, Oreg.) is added to each well (dye solution: 1 mg FLUO-3 AM, 440 μL DMSO and 440 μl 20% pluronic acid in DMSO, diluted 1:250 in Krebs-Ringer HEPES (KRH) buffer (25 mM HEPES, […], 0.96 mM NaH2PO4, 1 mM MgSO4, 2 mM CaCl2, 5 mM glucose, 1 mM probenecid, pH 7.4), 50 μl diluted solution per well). Plates are covered with aluminum foil and incubated at 37° C. for 1-2 hours in an environment containing 5% CO2. After the incubation, the dye is emptied from the plates, and the cells are washed once with KRH buffer, and resuspended in KRH buffer.
To measure the ability of a test compound to agonize or antagonize a calcium mobilization response in cells expressing capsaicin receptors to capsaicin or other vanilloid agonist, the EC50 of the agonist capsaicin is first determined. An additional 20 μl of KRH buffer and 1 μl DMSO is added to each well of cells, prepared as described above. 100 μl capsaicin in KRH buffer is automatically transferred by the FLIPR instrument to each well. Capsaicin-induced calcium mobilization is monitored using either FLUOROSKAN ASCENT (Labsystems; Franklin, Mass.) or FLIPR (fluorometric imaging plate reader system; Molecular Devices, Sunnyvale, Calif.) instruments. Data obtained between 30 and 60 seconds after agonist application are used to generate an 8-point concentration response curve, with final capsaicin concentrations of 1 nM to 3 μM. KALEIDAGRAPH software (Synergy Software, Reading, Pa.) is used to fit the data to the equation: […]
Test compounds are dissolved in DMSO, diluted in 20 μl KRH buffer so that the final concentration of test compounds in the assay well is between […] and 5 μM, and added to cells prepared as described above. The 96 well plates containing prepared cells and test compounds are incubated in the dark at room temperature for 0.5 to 6 hours. It is important that the incubation not continue beyond 6 hours. Just prior to determining the fluorescence response, 100 μl capsaicin in KRH buffer at twice the EC50 concentration determined as described above is automatically added by the FLIPR instrument to each well of the 96 well plate for a final sample volume of 200 μl and a final capsaicin concentration equal to the EC50. The final concentration of test compounds in the assay wells is between 1 μM and 5 μM. […] The concentration of antagonist required to provide a 50% decrease, relative to the response observed in the presence of capsaicin and without antagonist, is the IC50 for the antagonist, and is preferably below 1 micromolar, 100 nanomolar, 10 nanomolar or 1 nanomolar.

T1 sequence (Q8NER1 whole entry): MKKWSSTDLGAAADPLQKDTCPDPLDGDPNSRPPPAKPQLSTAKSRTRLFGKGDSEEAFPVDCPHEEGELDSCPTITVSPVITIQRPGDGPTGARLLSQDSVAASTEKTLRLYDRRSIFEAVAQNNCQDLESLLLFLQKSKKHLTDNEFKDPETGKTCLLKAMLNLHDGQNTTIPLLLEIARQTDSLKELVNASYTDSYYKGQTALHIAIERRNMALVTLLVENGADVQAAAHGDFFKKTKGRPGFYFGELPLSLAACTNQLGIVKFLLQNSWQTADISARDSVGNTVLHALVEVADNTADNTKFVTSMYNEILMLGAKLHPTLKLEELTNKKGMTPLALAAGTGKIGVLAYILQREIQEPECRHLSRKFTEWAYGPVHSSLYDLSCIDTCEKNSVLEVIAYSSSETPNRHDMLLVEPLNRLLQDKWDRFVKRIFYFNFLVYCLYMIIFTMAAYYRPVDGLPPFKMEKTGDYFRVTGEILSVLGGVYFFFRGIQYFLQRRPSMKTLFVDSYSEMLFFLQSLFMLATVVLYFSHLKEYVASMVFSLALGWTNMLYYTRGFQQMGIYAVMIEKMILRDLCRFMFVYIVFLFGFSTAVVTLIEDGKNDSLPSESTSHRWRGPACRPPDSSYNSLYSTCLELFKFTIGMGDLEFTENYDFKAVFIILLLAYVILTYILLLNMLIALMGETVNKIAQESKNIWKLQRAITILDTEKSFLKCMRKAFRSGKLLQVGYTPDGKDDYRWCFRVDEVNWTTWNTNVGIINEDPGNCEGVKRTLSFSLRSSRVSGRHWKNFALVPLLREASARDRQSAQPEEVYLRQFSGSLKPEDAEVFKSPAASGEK

SMILES	IC50 [µM]
CCN1CCCC1CNc1cc(C(F)(F)F)c(-c2cnc3c(Nc4ccc(C(F)(F)F)cn4)ccnc3n2)nn1 (centres unmarked) [Compound 76, 3-[6-{[(1-ethylpyrrolidin-2-yl)methyl]amino}-4-(trifluoromethyl)pyridazin-3-yl]-N-[5-(trifluoromethyl)pyridin-2-yl]pyrido[2,3-b]pyrazin-8-amine]	< 1
CN(C)C1CCCN(c2cc(C(F)(F)F)c(-c3cnc4c(Nc5ccc(C(F)(F)F)cn5)ccnc4n3)nn2)C1 (centres unmarked) [Compound 132, 3-{6-[3-(dimethylamino)piperidin-1-yl]-4-(trifluoromethyl)pyridazin-3-yl}-N-[5-(trifluoromethyl)pyridin-2-yl]pyrido[2,3-b]pyrazin-8-amine]	< 1
CCN(CC)CCN(CC)c1cc(C(F)(F)F)c(-c2cnc3c(Nc4ccc(C(F)(F)F)cn4)ccnc3n2)nn1 [Compound 99, N,N,N′-triethyl-N′-[5-(trifluoromethyl)-6-(8-{[5-(trifluoromethyl)pyridin-2-yl]amino}pyrido[2,3-b]pyrazin-3-yl)pyridazin-3-yl]ethane-1,2-diamine]	< 1
CCOc1nc(Nc2ccnc3nc(-c4nnccc4C(F)(F)F)cnc23)ccc1C(F)(F)F [Compound 44, N-[6-ethoxy-5-(trifluoromethyl)-2-pyridinyl]-3-[4-(trifluoromethyl)-3-pyridazinyl]pyrido[2,3-b]pyrazin-8-amine]	< 1
CN1CCC(N(C)c2cc(C(F)(F)F)c(-c3cnc4c(Nc5ccc(C(F)(F)F)cn5)ccnc4n3)nn2)C1 (centres unmarked) [Compound 97, 3-{6-[methyl(1-methylpyrrolidin-3-yl)amino]-4-(trifluoromethyl)pyridazin-3-yl}-N-[5-(trifluoromethyl)pyridin-2-yl]pyrido[2,3-b]pyrazin-8-amine]	< 1
CCN(CC)CCCNc1cc(C(F)(F)F)c(-c2cnc3c(Nc4ccc(C(F)(F)F)cn4)ccnc3n2)nn1 [Compound 73, N,N-diethyl-N′-[5-(trifluoromethyl)-6-(8-{[5-(trifluoromethyl)pyridin-2-yl]amino}pyrido[2,3-b]pyrazin-3-yl)pyridazin-3-yl]propane-1,3-diamine]	< 1
N#Cc1cc(C(F)(F)F)c(-c2cnc3c(Nc4ccc(C(F)(F)F)cn4)ccnc3n2)nn1 [Compound 55, 5-(trifluoromethyl)-6-(8-{[5-(trifluoromethyl)pyridin-2-yl]amino}pyrido[2,3-b]pyrazin-3-yl)pyridazine-3-carbonitrile]	< 1
CC(CO)Nc1cc(C(F)(F)F)c(-c2cnc3c(Nc4ccc(C(F)(F)F)cn4)ccnc3n2)nn1 (centres unmarked) [Compound 117, 2-{[5-(trifluoromethyl)-6-(8-{[5-(trifluoromethyl)pyridin-2-yl]amino}pyrido[2,3-b]pyrazin-3-yl)pyridazin-3-yl]amino}propan-1-ol]	< 1
CCCN(CCC)CCNc1cc(C(F)(F)F)c(-c2cnc3c(Nc4ccc(C(F)(F)F)cn4)ccnc3n2)nn1 [Compound 83, N,N-dipropyl-N′-[5-(trifluoromethyl)-6-(8-{[5-(trifluoromethyl)pyridin-2-yl]amino}pyrido[2,3-b]pyrazin-3-yl)pyridazin-3-yl]ethane-1,2-diamine]	< 1
CCOc1cc(C(F)(F)F)c(-c2cnc3c(Nc4ccc(C(F)(F)F)cn4)ccnc3n2)nn1 [Compound 50, 3-[6-ethoxy-4-(trifluoromethyl)pyridazin-3-yl]-N-[5-(trifluoromethyl)pyridin-2-yl]pyrido[2,3-b]pyrazin-8-amine]	< 1

Now from value to compound:

IC50 [µM]	SMILES
< 1	CCN(C)c1cc(C(F)(F)F)c(-c2cnc3c(Nc4ccc(C(F)(F)F)cn4)ccnc3n2)nn1 [Compound 180, 3-{6-[ethyl(methyl)amino]-4-(trifluoromethyl)pyridazin-3-yl}-N-[5-(trifluoromethyl)pyridin-2-yl]pyrido[2,3-b]pyrazin-8-amine]
< 1	FC(F)(F)c1ccc(Nc2ccnc3nc(-c4nnc(N5CCCCCC5)cc4C(F)(F)F)cnc23)nc1 [Compound 178, 3-[6-azepan-1-yl-4-(trifluoromethyl)pyridazin-3-yl]-N-[5-(trifluoromethyl)pyridin-2-yl]pyrido[2,3-b]pyrazin-8-amine]
< 1	OC1CCCN(c2cc(C(F)(F)F)c(-c3cnc4c(Nc5ccc(C(F)(F)F)cn5)ccnc4n3)nn2)C1 (centres unmarked) [Compound 195, 1-[5-(trifluoromethyl)-6-(8-{[5-(trifluoromethyl)pyridin-2-yl]amino}pyrido[2,3-b]pyrazin-3-yl)pyridazin-3-yl]piperidin-3-ol]
< 1	CC(C)(CO)Nc1cc(C(F)(F)F)c(-c2cnc3c(Nc4ccc(C(F)(F)F)cn4)ccnc3n2)nn1 [Compound 171, 2-methyl-2-{[5-(trifluoromethyl)-6-(8-{[5-(trifluoromethyl)pyridin-2-yl]amino}pyrido[2,3-b]pyrazin-3-yl)pyridazin-3-yl]amino}propan-1-ol]
< 1	COC1CCN(c2cc(C(F)(F)F)c(-c3cnc4c(Nc5ccc(C(F)(F)F)cn5)ccnc4n3)nn2)CC1 [Compound 188, 3-[6-(4-methoxypiperidin-1-yl)-4-(trifluoromethyl)pyridazin-3-yl]-N-[5-(trifluoromethyl)pyridin-2-yl]pyrido[2,3-b]pyrazin-8-amine]
< 1	CN1CCN(c2cc(C(F)(F)F)c(-c3cnc4c(Nc5ccc(C(F)(F)F)cn5)ccnc4n3)nn2)CC1 [Compound 145, 3-[6-(4-methylpiperazin-1-yl)-4-(trifluoromethyl)pyridazin-3-yl]-N-[5-(trifluoromethyl)pyridin-2-yl]pyrido[2,3-b]pyrazin-8-amine]
< 1	OCCCCNc1cc(C(F)(F)F)c(-c2cnc3c(Nc4ccc(C(F)(F)F)cn4)ccnc3n2)nn1 [Compound 172, 4-{[5-(trifluoromethyl)-6-(8-{[5-(trifluoromethyl)pyridin-2-yl]amino}pyrido[2,3-b]pyrazin-3-yl)pyridazin-3-yl]amino}butan-1-ol]
< 1	COCCNc1cc(C(F)(F)F)c(-c2cnc3c(Nc4ccc(C(F)(F)F)cn4)ccnc3n2)nn1 [Compound 163, 3-{6-[(2-methoxyethyl)amino]-4-(trifluoromethyl)pyridazin-3-yl}-N-[5-(trifluoromethyl)pyridin-2-yl]pyrido[2,3-b]pyrazin-8-amine]
< 1	CC1CCN(c2cc(C(F)(F)F)c(-c3cnc4c(Nc5ccc(C(F)(F)F)cn5)ccnc4n3)nn2)CC1 [Compound 177, 3-[6-(4-methylpiperidin-1-yl)-4-(trifluoromethyl)pyridazin-3-yl]-N-[5-(trifluoromethyl)pyridin-2-yl]pyrido[2,3-b]pyrazin-8-amine]
< 1	CCCN(CCO)c1cc(C(F)(F)F)c(-c2cnc3c(Nc4ccc(C(F)(F)F)cn4)ccnc3n2)nn1 [Compound 134, 2-{propyl[5-(trifluoromethyl)-6-(8-{[5-(trifluoromethyl)pyridin-2-yl]amino}pyrido[2,3-b]pyrazin-3-yl)pyridazin-3-yl]amino}ethanol]
< 1	CCCC(C)Nc1cc(C(F)(F)F)c(-c2cnc3c(Nc4ccc(C(F)(F)F)cn4)ccnc3n2)nn1 (centres unmarked) [Compound 158, 3-{6-[(1-methylbutyl)amino]-4-(trifluoromethyl)pyridazin-3-yl}-N-[5-(trifluoromethyl)pyridin-2-yl]pyrido[2,3-b]pyrazin-8-amine]
< 1	OC1CCN(c2cc(C(F)(F)F)c(-c3cnc4c(Nc5ccc(C(F)(F)F)cn5)ccnc4n3)nn2)CC1 [Compound 196, 1-[5-(trifluoromethyl)-6-(8-{[5-(trifluoromethyl)pyridin-2-yl]amino}pyrido[2,3-b]pyrazin-3-yl)pyridazin-3-yl]piperidin-4-ol]
< 1	FC(F)(F)c1ccc(Nc2ccnc3nc(-c4nnc(N5CCCCC5)cc4C(F)(F)F)cnc23)nc1 [Compound 176, 3-[6-piperidin-1-yl-4-(trifluoromethyl)pyridazin-3-yl]-N-[5-(trifluoromethyl)pyridin-2-yl]pyrido[2,3-b]pyrazin-8-amine]
